What was measured:
human GLP1 receptor = human GLP1 receptor (Homo sapiens, UniProt P43220); conditions: greater affinity vs native GLP1; cited from earlier work
[1] = mildly hyperglycaemic patients with Type 2 diabetes on metformin (Ratner et al. 2010); cited from earlier work
[2] = test system: CREB (Ser133) / CRTC2 in INS1 insulinoma cells; test: Immunoblot of CREB phosphorylation and CRTC2 dephosphorylation in INS1 insulinoma cells; type: cell-based, rat; conditions: within 30 minutes, FSK 10 μM, KCl 40 mM
Experimental: (§1) INS-1 insulinoma cells were cultured in RPMI (corning cellgro) containing 10% fetal bovine serum (Gemini Bio Products), 100 μg/mL penicillin-streptomycin and 1 mM sodium pyruvate (corning cellgro). MIN6 cells were grown in DMEM (corning cellgro) with 10% FBS, 100 μg/mL penicillin-streptomycin and 70 uM beta-mercaptoethanol. For chronic glucose experiments, cells were maintained under low (2.8 mM) or high (20 mM) glucose for 3 days. Exendin-4 (10 nM), Forskolin (10 μM), KCl (40 mM), DMOG (1 mM) and rapamycin (50 nM) were added to cells as indicated. Cellular cAMP levels were measured using an ELISA kit (Cayman Chemical Company) according to manufacturer's instructions.
Total protein from cultured cells or primary islets was extracted in a Tris-HCl buffer containing 0.5% NP40, protease and phosphatase inhibitors. Proteins were quantified using Bradford reagent and separated using SDS-PAGE. For cellular fractionation, cells were resuspended in hypotonic lysis buffer (40 mM TrisHCl PH 7.4, 10 mM NaCl, 1 mM EDTA with DTT and protease inhibitors). Cells were lysed using a dounce homogenizer and centrifuged. Cytosolic supernatants were collected. Nuclear pellets were washed 3 times and resuspended in nuclear extraction buffer (40 mM TrisHCl PH 7.4, 420 mM NaCl, 10% Glycerol, 1 mM EDTA). Samples were sonicated and centrifuged. Nuclear supernatants were collected. […]

PKIB in INS1 cells = test: PKIB expression (mRNA/protein) in INS1 cells; type: cell-based, rat; conditions: DMOG 1 mM
Experimental: Moreover, RNAi-mediated depletion of HIF-1α also disrupted PKIB induction, whereas HIF-1α over-expression potentiated it (FIG. 5f, FIGS. 10e and 10f).
as §1
Total RNAs from cells or primary islets were extracted using Trizol and cDNA was generated using the Transcriptor First Strand cDNA Synthesis kit (Roche Applied Science). cDNAs were quantified on a lightcycler 480 instrument (Roche Applied Science). […] Libraries were quantitated by Qubit (Invitrogen), and run on a MiSeq instrument with paired-end 75 bp reads using v3 chemistry (Illumina) Data were analyzed by tophat2 and cuffdiff against the mouse mm10 genome build. […]

[3] = Matthews et al. 2008; cited from earlier work

human GLP1 receptor, sequence (P43220 24-463): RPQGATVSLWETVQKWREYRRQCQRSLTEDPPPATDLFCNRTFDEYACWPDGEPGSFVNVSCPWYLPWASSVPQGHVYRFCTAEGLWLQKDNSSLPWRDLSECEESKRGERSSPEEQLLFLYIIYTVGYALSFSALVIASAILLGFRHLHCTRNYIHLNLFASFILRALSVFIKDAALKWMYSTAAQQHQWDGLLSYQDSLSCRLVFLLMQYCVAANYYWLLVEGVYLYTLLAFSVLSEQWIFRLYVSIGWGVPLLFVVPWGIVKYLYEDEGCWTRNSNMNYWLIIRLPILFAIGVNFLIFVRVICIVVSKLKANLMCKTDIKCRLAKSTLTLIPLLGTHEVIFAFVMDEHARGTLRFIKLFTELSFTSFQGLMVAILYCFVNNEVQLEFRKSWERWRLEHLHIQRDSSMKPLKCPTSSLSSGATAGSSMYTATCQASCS

For “Lixisenatide: exendin-4-based GLP1 receptor agonist”, the “affinity for the human GLP1 receptor compared with native GLP1” value (human GLP1 receptor) is given as “approximately 4 fold” and the glycaemic control [1] is given as “significantly improve glycaemic control”.
In the case of [Cl-].[K+] [KCl], the “phosphorylation of CREB at Ser133” value [2] was “stimulated CREB phosphorylation to a lesser extent”.
For COC(=O)CNC(=O)C(=O)OC [DMOG], the PKIB expression (PKIB in INS1 cells) was “upregulated PKIB expression”.
For “Albiglutide: recombinant human serum albumin (HSA)-GLP1 hybrid protein; dipeptidyl peptidase-4-resistant glucagon-like peptide-1 dimer fused to human albumin”, the half-life after administration [3] is given as “four to seven”.
